Laboratory results: US20170340588A1, “MODULATION OF REGULATORY T CELLS VIA G-COUPLED PROTEIN RECEPTOR 43” (President and Fellows of Harvard College, priority 2013, published 2017)

Experiments:
[1] = mouse, in vivo
Procedure: At the conclusion of the experiment mice were removed from isolators and processed immediately.
Cecal or small intestinal contents were collected immediately after animals were sacrificed and flash frozen in N2(1). Samples were mashed in 500 μl HPLC grade water and centrifuged at >14,000 x g, the resulting supernatant was then passed through a 0.22 μm syringe filter to remove bacterial cells and debris. Samples we then acidified with 1/10 volume of 0.01M H2SO4, heated and passed through a condenser to isolate volatile compounds within a sample. SCFA analyses were performed using an Agilent 1200 series HPLC and a Poroshell 120 SB C18 column (2.7 μm, 3.0×100mm) with guard column (Agilent Technologies). Sulfuric acid (0.01M) was used as the mobile phase. SCFA concentrations were weight corrected.

[2] = tested on: colonic lamina propria Treg; assay: In vitro T cell stimulation of colonic Treg (RTqPCR, ELISA, proliferation); format: cell-based, mice
Procedure: (§1) Treg were isolated from the colon, small intestine, mesenteric lymph node or spleen of C57BL/6 Foxp3^YFP-Cre mice and FACS-sorted based on expression of YFP. RNA samples were prepared using the RNeasy Mini Kit (Qiagen) and cDNA was synthesized using the Bio-Rad iScript cDNA Synthesis Kit. Real-time (RT)-qPCR was performed using the KAPA SYBR FAST Universal qPCR Kit (KAPA Biosystems) and a Stratagene MX3005P (Agilent Technologies). The following primer sequences were used:
Colonic lamina propria Treg were isolated from C57BL/6 Foxp3^YFP-Cre mice as described above and FACS-sorted based on expression of YFP. Isolated Treg were cultured in RPMI 1640 medium supplemented with 10% FBS (Gibco), 4 mM L-glutamine, 80 U/ml penicillin, 80 μg/ml streptomycin, 1 mM sodium pyruvate, 10 mM HEPES and 1× nonessential amino acids (all obtained from Cellgro). Treg were stimulated with 1 μg/ml anti-CD3 antibody and with or without 0.1 mM sodium propionate for 24 h at 37° C. The division index is calculated by dividing the total number of cell divisions by the number of cells added at the start of the culture and represents the average number of divisions a cell from the original population has undergone and includes the undivided fraction in the calculation.
Cytokines were measured in culture supernatants using standard cytokines, antibodies and protocols. IL-10 was measured using the BD OptEIA ELISA Kit (BD Biosciences) and TGFβ1 levels were measured using the mouse TGF-beta 1 DuoSet (R&D Systems).

[3] = tested on: HDAC; assay: HDAC expression (RTqPCR) and histone acetylation (Western blot) in cTreg; format: cell-based, mice; settings: 0.1 mM, 24 hours
Procedure: as §1
Colonic lamina propria Treg were isolated and whole cell lysates generated using RIPA buffer in the presence of protease inhibitors. Protein lysates were resolved using SDS-PAGE and transferred to PVDF membrane using a Bio-Rad wet transfer apparatus. Blots were probed with antibodies directed against acetyl-histone H3 (K9) and histone H3 (All from Cell Signaling Technologies). After incubation with the appropriate HRP-conjugated antibody, ECL was used for developing. Densitometry analysis of Western blots was performed using Image-J software available on the world wide web at rsbweb.nih.gov/ij/.

CCC(=O)O [Propionate, propionic acid]
SCFA levels, SPF SI [1]: 2.69 ± 0.24 µmol/g | SCFA levels, SPF SI + P [1]: 12.08 ± 3.69 µmol/g | SCFA levels, cecal contents, ASF [1]: 18.83 ± 2.72 µmol/g | SCFA levels, cecal contents, GF [1]: 1.46 ± 0.162 µmol/g | SCFA levels, cecal contents, GF + Mic [1]: 11.78 ± 6.38 µmol/g | SCFA levels, cecal contents, GF + P [1]: 14.93 ± 4.50 µmol/g | SCFA levels, cecal contents, SPF [1]: 21.90 ± 0.122 µmol/g | SCFA levels, cecal contents, SPF + P [1]: 43.33 ± 12.17 µmol/g | SCFA levels, cecal contents, SPF + Vanco [1]: 1.851 ± 1.41 µmol/g | Foxp3 and IL-10 expression and IL-10 protein levels ([2]; Ffar2+/+ cTreg, 0.1 mM, 24 hours): enhanced | cTreg proliferation ([2]; anti-CD3 and IL-2, 0.1 mM propionate): enhanced proliferation | Foxp3 and IL-10 expression in cTreg ([2]; cTreg from GF mice stimulated 24 hours in vitro, 0.1 mM): significant increase | IL-10 production ([2]; cTreg from GF mice, in vitro 24 hours, 0.1 mM, ELISA): increased | Foxp3 expression, IL-10 expression and IL-10 protein production ([2]; cTreg from SPF mice, 24 hours in vitro, 0.1 mM): increases | cTreg expression of HDAC6 and HDAC9 ([3]; Ffar2+/+): reduced | cTreg expression of class I HDAC1 and HDAC2 or class IIa HDAC7 ([3]; Ffar2+/+): did not reduce | histone acetylation (H3K9) ([3]; cTreg, required Ffar2): enhanced
